In brackets after ≈: the same amount, converted by molar mass.
What was measured:
HEL [1] = assay: Tested for cytotoxic activity in human embryonic lung fibroblast (HEL); format: functional
E6SM [2] = assay: Tested for cytotoxic activity in human embryonic skin muscle fibroblast (E6SM); format: functional; settings: Muscle tissue
HEL [3] = assay: Tested for antiviral activity against thymidine kinase deficient Varicella zoster virus in human embryonic lung fibroblasts
E6SM [4] = assay: Tested for antiviral activity against vaccinia virus in human embryonic skin muscle fibroblast; format: functional; settings: Muscle tissue
E6SM [5] = assay: Tested for antiviral activity against thymidine kinase-deficient (TK-HSV-2G) virus in E6SM cell line(human embryonic skin-muscle fibroblasts); format: functional
E6SM [6] = assay: Tested for antiviral activity against herpes simplex virus type 1(KOS) in E6SM cell line(human embryonic skin-muscle fibroblasts); format: functional
E6SM [7] = assay: The compound was tested for antiviral activity against thymidine kinase-deficient (TK-HSV-1)virus in E6SM cell line(human embryonic skin-muscle fibroblasts); format: functional
HEL [8] = assay: Tested for antiviral activity against thymidine kinase wild type Varicella zoster virus in human embryonic lung fibroblast; format: functional
E6SM [9] = assay: Tested for antiviral activity against VSV-virus in human embryonic skin muscle fibroblasts; format: functional; settings: Muscle tissue
Staphylococcus hominis [10] = assay: Tested for the antimicrobial activity minimum inhibitory concentration) against Staphylococcus hominis; format: functional
Vero [11] = assay: Tested for cytotoxic activity in African green monkey kidney cells (Vero); format: functional; settings: Chlorocebus sabaeus
Vero [12] = assay: Tested for antiviral activity against parainfluenza virus in african green monkey kidney cell (Vero); format: functional; settings: Chlorocebus sabaeus
HeLa [13] = assay: Tested for antiviral activity against coxsackie-B4 virus in human epithelial cell line; format: functional
Vero [14] = assay: Tested for antiviral activity against Punta toro virus in African green monkey kidney cell (Vero); format: functional; settings: Chlorocebus sabaeus
Vero [15] = assay: Tested for antiviral activity against Sindbis virus in African green monkey kidney cell (Vero); format: functional; settings: Chlorocebus sabaeus
Vero [16] = assay: Tested for antiviral activity against Reo-1 virus in African green monkey kidney cell (Vero); format: functional; settings: Chlorocebus sabaeus
Vero [17] = assay: Tested for antiviral activity against coxsackie B-4 virus in African green monkey kidney cell (Vero); format: functional; settings: Chlorocebus sabaeus
HeLa [18] = assay: The compound was tested for antiviral activity against VSV-virus in human epithelial cells; format: functional
Escherichia coli [19] = assay: Tested for the antimicrobial activity minimum inhibitory concentration) against Escherichia coli; format: functional
HeLa [20] = assay: Tested for cytotoxic activity in human epithelial cell line (HeLa); format: functional
Klebsiella pneumoniae [21] = assay: Tested for the antimicrobial activity minimum inhibitory concentration) against Klebsiella pneumoniae; format: functional
[22] = test system: Staphylococcus epidermidis; assay: Tested for the antimicrobial activity as minimum inhibitory concentration against Staphylococcus epidermidis ATCC 12228; format: functional
Staphylococcus aureus = assay: Tested for the antimicrobial activity as minimum inhibitory concentration against Staphylococcus aureus ATCC 6538; format: functional
Staphylococcus hominis [23] = assay: Tested for the antimicrobial activity as minimum inhibitory concentration against Staphylococcus hominis ATCC 27844; format: functional
Klebsiella pneumoniae [24] = assay: Tested for the antimicrobial activity as minimum inhibitory concentration against Klebsiella pneumoniae ATCC 13883; format: functional
Escherichia coli [25] = assay: Tested for the antimicrobial activity as minimum inhibitory concentration against Escherichia coli ATCC 25922; format: functional
MT4 [26] = assay: The compound was tested for effective concentration required to protect MT-4 cells against the cytopathicity of HIV-2(ROD); format: functional, cell-based; settings: Homo sapiens
MT4 [27] = assay: The compound was tested for effective concentration required to protect MT-4 cells against the cytopathicity of HIV-1(IIIB); format: functional, cell-based; settings: Homo sapiens
MT4 [28] = assay: The compound was tested for cytotoxic concentration required to reduce the viability of MT-4 cells; format: functional; settings: Homo sapiens

Structure (SMILES): Nc1nc2c(ncn2COCCO)c(=O)[nH]1 [ACYCLOVIR]
- MCC (HEL [1]): > 50 µg/mL
- MCC (E6SM [2]): > 400 µg/mL
- MIC (HEL [3]): 12.3 µg/mL (≈ 54.6 µM)
- MIC (E6SM [4]): > 400 µg/mL
- MIC (E6SM [5]): 0.08 µg/mL (≈ 0.355 µM)
- MIC (E6SM [6]): 0.08 µg/mL (≈ 0.355 µM)
- MIC (E6SM [7]): 48 µg/mL (≈ 213 µM)
- MIC (HEL [8]): 1.1 µg/mL (≈ 4.88 µM)
- MIC (E6SM [9]): 48 µg/mL (≈ 213 µM)

Structure (SMILES): NC(=O)c1ncn([C@@H]2O[C@H](CO)[C@@H](O)[C@H]2O)n1 [RIBAVIRIN]
- MIC (Staphylococcus hominis [10]): > 400 µg/mL
- MCC (Vero [11]): > 400 µg/mL
- MCC (Vero [12]): 48 µg/mL
- MIC (HeLa [13]): 48 µg/mL (≈ 197 µM)
- MIC (Vero [14]): 16 µg/mL (≈ 65.5 µM)
- MIC (Vero [15]): 80 µg/mL (≈ 328 µM)
- MCC (E6SM [2]): > 400 µg/mL
- MIC (E6SM [4]): 240 µg/mL (≈ 983 µM)
- MIC (Vero [16]): 80 µg/mL (≈ 328 µM)
- MIC (Vero [17]): 240 µg/mL (≈ 983 µM)
- MIC (HeLa [18]): 240 µg/mL (≈ 983 µM)
- MIC (Escherichia coli [19]): > 400 µg/mL
- MCC (HeLa [20]): > 400 µg/mL
- MIC (Klebsiella pneumoniae [21]): > 400 µg/mL
- MIC (E6SM [9]): 400 µg/mL (≈ 1640 µM)

Structure (SMILES): CN[C@@H]1[C@H](O[C@H]2[C@H](O[C@H]3[C@H](O)[C@@H](O)[C@H](N=C(N)N)[C@@H](O)[C@@H]3N=C(N)N)O[C@@H](C)[C@]2(O)C=O)O[C@@H](CO)[C@H](O)[C@H]1O [STREPTOMYCIN]
- MIC [22]: 2.1 µg/mL (≈ 3.61 µM)
- MIC (Staphylococcus aureus): 2.1 µg/mL (≈ 3.61 µM)
- MIC (Staphylococcus hominis [23]): 2.1 µg/mL (≈ 3.61 µM)
- MIC (Klebsiella pneumoniae [24]): 0.6 µg/mL (≈ 1.03 µM)
- MIC (Escherichia coli [25]): 0.6 µg/mL (≈ 1.03 µM)

Structure (SMILES): Cc1cn([C@H]2C[C@H](N=[N+]=[N-])[C@@H](CO)O2)c(=O)[nH]c1=O [ZIDOVUDINE]
- EC50 (MT4 [26]): 6 nM
- EC50 (MT4 [27]): 6.4 nM
- CC50 (MT4 [28]): > 500000 nM
